Measurements taken from article PMC6269682, “Apocynin: Chemical and Biophysical Properties of a NADPH Oxidase Inhibitor” (Molecules, 2013).

Legend:
[1] = biological target: T1, human serum albumin (HSA) (Homo sapiens, UniProt P02768); experiment: intrinsic fluorescence quenching (Stern-Volmer, apparent Ka), with displacement of fluorescent site probes; assay type: binding
T1 construct: gene ALB

[2] = biological target: T1, human serum albumin (HSA); experiment: probe fluorescence enhancement and blue shift on binding; displaced by apocynin

T1 sequence (P02768 25-609): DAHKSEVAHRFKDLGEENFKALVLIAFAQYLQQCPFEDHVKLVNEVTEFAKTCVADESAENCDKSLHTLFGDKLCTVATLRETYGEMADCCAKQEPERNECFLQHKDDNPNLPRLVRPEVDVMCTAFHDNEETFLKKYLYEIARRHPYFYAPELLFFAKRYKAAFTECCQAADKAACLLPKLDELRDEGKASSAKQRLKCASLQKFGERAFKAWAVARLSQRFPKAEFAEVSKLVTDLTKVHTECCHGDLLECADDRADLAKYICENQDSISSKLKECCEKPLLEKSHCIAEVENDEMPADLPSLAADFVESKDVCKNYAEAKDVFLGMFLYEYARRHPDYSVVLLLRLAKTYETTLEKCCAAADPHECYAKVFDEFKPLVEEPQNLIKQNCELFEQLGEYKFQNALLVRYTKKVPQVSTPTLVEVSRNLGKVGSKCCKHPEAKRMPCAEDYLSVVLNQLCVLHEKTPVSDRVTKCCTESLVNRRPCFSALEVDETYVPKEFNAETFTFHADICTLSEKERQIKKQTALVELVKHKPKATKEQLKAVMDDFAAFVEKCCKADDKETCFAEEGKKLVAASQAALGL

Kd [1] | Structure (SMILES) | probe fluorescence enhancement and blue shift on binding; displaced by apocynin [2]
45.7 µM | COc1cc(C(C)=O)ccc1O [APO, 4-hydroxy-3-methoxyacetophenone] | 
 | CN(C)c1cccc2c(S(=O)(=O)NCC(=O)O)cccc12 [DG, dansylglycine] | apocynin was able to displace both fluorescent probes, but a greater effect was observed using DNSA
 | CN(C)c1cccc2c(S(N)(=O)=O)cccc12 [DNSA, 5-(dimethylamino)-1-naphthalenesulfonamide] | binding of these probes to albumin provoked a significant increase in their fluorescence quantum yield
